# Measurements from article PMC13316043, “Structural basis of NSD2 degradation via targeted recruitment of SCF-FBXO22” (Nature Communications, 2026).
# Read-outs that look alike come from different tables or passages of the source.
# How the values were obtained:
# His-tagged NSD2 PWWP1 = target: T1, His-tagged NSD2 PWWP1 (Homo sapiens, UniProt O96028); test: TR-FRET cooperativity (competition) assay: displacement of biotinylated NSD2 ligand UNC7096; type: binding
# T1 sequence (O96028 211-350): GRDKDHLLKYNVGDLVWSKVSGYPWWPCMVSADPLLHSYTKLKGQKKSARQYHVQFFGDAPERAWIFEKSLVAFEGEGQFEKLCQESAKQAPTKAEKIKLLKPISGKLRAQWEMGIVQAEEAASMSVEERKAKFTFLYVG
# From the text: Because of the direct interactions observed between FBXO22 and NSD2, we hypothesized that some degree of cooperative binding could facilitate complex stabilization. Therefore, we developed a TR-FRET assay to monitor the interaction between his-tagged NSD2 and a biotinylated NSD2 ligand, UNC7096, that is missing the modality for FBXO22-recruitment (Supplementary Fig. 3D)[20]. Given the positive FRET signal observed when both NSD2 PWWP1 and UNC7096 are present, we used this setup to evaluate the displacement of UNC7096 by UNC10088 in the presence or absence of the FBXO22 FIST domain (Supplementary Fig. 3D). […] Importantly, this FBXO22-dependent enhancement of NSD2 antagonism by UNC10088 was absent when C326 was substituted for alanine (Supplementary Fig. 3F). Taken together, the SCF^FBXO22-NSD2 PWWP1 structure both confirms prior results and provides additional insight into the surfaces that contribute to a cooperative interaction between NSD2 and FBXO22 to promote potent NSD2 polyubiquitination and degradation.
# The TR-FRET assay was adapted to assess cooperativity from the following workflows previously reported[39],[40]. Assays were performed in white, low-volume, flat-bottom, nonbinding 384-well microplates (Greiner, Catalog No. 784904) with a final assay volume of 10 μL per well. The assay buffer contained 20 mM Tris–HCl (pH 7.5) and 150mM NaCl, 0.05% Tween-20 (v/v), 2mM DTT, and 1% DMSO (v/v). LANCE Europium (Eu)-W8044 Streptavidin conjugate (2 nM) and LANCE Ultra ULight-anti6x-His labeled antibodies (10 nM) were used as donor and acceptor fluorophores associated with the tracer ligand and protein, respectively. Final assay concentrations of 63 nM His-tagged NSD2 PWWP1 and 31 nM of UNC7096 (a biotinylated version of the NSD2 ligand) as a tracer ligand were used for compound testing. UNC8732, UNC10088, and UNC10415667 were diluted in a 10-point, 3-fold serial dilution, and indicated compounds were pre-incubated with FBXO22 FIST for 30 min. A master mix of NSD2 PWWP1, UNC7096, and TR-FRET reagents was made prior to its addition to the compounds and/or FBXO22 FIST. The plates were sealed with metallic covers, mixed gently for 1 min, and incubated in the dark for 1 h. After 1 h, the plate was read on an EnVision 2103 plate reader with a 320 nm excitation filter and 615 nm/ 665 nm emission filters simultaneously with a dual mirror D400/D630 and a 100 μs delay. […] Raw TR-FRET signals were normalized to a high inhibition control (10 μM of UNC10088) and negative control (1% DMSO). The normalized TR-FRET signals were plotted against the compound concentrations. […] Ki values were calculated from the IC50s using the tight-binding model[41],[42]. The cooperativity factor (α) was calculated as the ratio of Ki (Binary)/ Ki (Ternary), with α > 1 indicating positive cooperativity between NSD2 PWWP1 and FBXO22 FIST based on its disruption of NSD2 binding to UNC7096.
# FBXO22 FIST domain = test: Differential scanning fluorimetry (DSF); type: binding, human; details: vs DMSO
# Method: A total of 9.5 µL of the master mix containing FBXO22 FIST WT or variants, SYPRO Orange Dye (Invitrogen), and DSF buffer (20 mM Tris 7.5, 150 mM NaCl, and 1 mM TCEP) were added to a 384-well qPCR plate (Genesee Scientific). 0.5 µL of the compound in DMSO was added to achieve a final concentration of 15 µM of the protein and 15× SYPRO Orange. The DSF assay plate was covered and incubated on an orbital shaker at room temperature for 30 min. The DSF assay was performed using the ViiA 7 Real-Time PCR System (Applied Biosystems). The plate was heated from 25°C to 95°C with a rate of 0.033°C/second. The raw fluorescence value was analyzed using the Protein Thermal Shift Software (Applied Biosystems, v1.4) to obtain the Tm. The graph was generated using GraphPad Prism (v 10.4.1).
# [1] = target: T2, NSD2 (long and short forms) (Homo sapiens, UniProt O96028); test: Western blot of NSD2 in HEK293T cells; type: cell-based; details: 10 µM, 6 hrs, vs DMSO
# T2 sequence (O96028 211-350 limits assumed): T1 sequence (O96028 211-350)
# Method: HEK293T and U2OS were obtained from ATCC and cultured in high-glucose-containing Dulbecco’s Modified Eagle’s Medium (DMEM; Gibco; cat. #11995) supplemented with 10% fetal bovine serum (VWR) and 1% penicillin/streptomycin (Gibco). Cells were treated with either UNC10415667, UNC12149, UNC12567, hemin (Sigma; cat. #H9039), or DMSO control for the indicated times and analyzed by western blot using standard procedures. Briefly, cells were lysed on ice for 15 min in NETN lysis buffer (20 mM Tris pH 8.0, 100 mM NaCl, 0.5 mM EDTA, 0.5% NP40) supplemented with 10 µg/mL aprotinin, 10 µg/mL leupeptin, 10 µg/mL pepstatin A, 1 mM sodium orthovanadate, 1 mM sodium fluoride, and 1 mM AEBSF (4-[two aminoethyl] benzenesulfonyl fluoride). Cell lysates were centrifuged at 20,000×g in a benchtop microcentrifuge at 4 °C for 10 min. Protein concentration was determined by Bradford assay (Bio-Rad; cat. #5000006). Protein concentration was normalized using Laemmli buffer. Samples were heated for 5 min at 95°C in a dry water-bath. Samples were separated on TGX stain free gels (Bio-Rad) transferred to nitrocellulose membrane and blocked in 5% non-fat dry milk (Biorad; cat. #1706404) diluted in 1x TBS-T (137 mM NaCl, 2.7 mM KCl, 25 mM Tris pH 7.6, 1% Tween-20). Primary antibody incubations (Anti-NSD2 (Abcam; Cat# ab75359; Lot# 1093214-1; 1:1000 dilution), Anti-BACH1 (Fortis Life Sciences; Cat# A303-805A; Lot# 1; 1:1000 dilution), and Anti-GAPDH (Santa Cruz Biotechnology; Cat# sc-47724; Lot# C1023; 1:1000 dilution)) were performed overnight at 4 °C. Secondary antibodies (Peroxidase AffiniPure Goat Anti-Rabbit IgG (H + L) (Jackson Immuno; Cat# 111-035-003; 1:5000 dilution) and Peroxidase AffiniPure Goat Anti-Mouse IgG (H + L) (Jackson Immuno; Cat# 115-035-003; 1:5000 dilution)) were incubated for 1 h at room temperature. Blots were developed by chemiluminescence using Pierce ECL (Thermo Fisher Scientific; cat. #32106).
# [2] = compound alone (buffer, no FBXO22 FIST), tracer UNC7096, read-out: IC50, competitive TR-FRET, binding to NSD2 PWWP1
Structure (SMILES),"IC50 (His-tagged NSD2 PWWP1; FBXO22 FIST C326A variant present, read-out: IC50, competitive TR-FRET, in the presence of C326A FIST) [nM]","IC50 (His-tagged NSD2 PWWP1; FBXO22 FIST present, reagents not preincubated, read-out: IC50, competitive TR-FRET, in the presence of FBXO22 FIST without preincubation) [nM]","IC50 (His-tagged NSD2 PWWP1; WT FBXO22 FIST present, compound pre-incubated with FIST 30 min, read-out: IC50, competitive TR-FRET, in the presence of FBXO22 FIST) [nM]",IC50 (His-tagged NSD2 PWWP1; [2]) [nM],change in melting temperature (Tm) of WT FBXO22 FIST (FBXO22 FIST domain),NSD2 levels by immunoblot [1],change in melting temperature (Tm) of FBXO22 FIST C326A (FBXO22 FIST domain; C326A variant)
O=C1COc2cc(C(=O)N(Cc3ccc(C(=O)Nc4ccc5c(c4)CCN(C(=O)CCCCC(O)S(=O)(=O)O)C5)cc3)C3CC3)ccc2N1 (stereo not shown) [UNC10088],227 ± 10,108,101 ± 8,248 ± 22,stabilize WT FBXO22 FIST,degradation of NSD2,–
O=Cc1ccc(C(=O)N2CCc3cc(NC(=O)c4ccc(CN(C(=O)c5ccc6c(c5)OCC(=O)N6)C5CC5)cc4)ccc3C2)cc1 [UNC10415667],–,–,–,159 ± 24,significant increase,completely degraded,negligible shift
